For data set [1] the following is noted: rat, in vivo.
Experimental: Rats were obtained commercially and were pre-cannulated in the jugular vein. Animals were conscious at the time of the experiment. All animals were fasted overnight and until 4 hours post-dosing of a prodrug of Formula (I).
Rat blood samples (0.3 mL/sample) were collected from all animals prior to dosing and at different time-points up to 24 h post-dose into tubes containing EDTA. Two aliquots (100 μL each) were quenched with 300 μL methanol and stored at −20° C. prior to analysis.
To prepare analysis standards, 90 μL of rat blood was quenched with 300 μL methanol followed by 10 μL of spiking standard and/or 20 μL of internal standard. The sample tubes were vortexed for at least 2 min and then centrifuged at 3400 rpm for 20 min. […]
LC-MS-MS analysis was performed using an API 4000 equipped with Agilent 1100 HPLC and a Leap Technologies autosampler. […] Acamprosate was monitored in negative ion mode. […] Prodrug was monitored in positive ion mode. […]
The percent relative bioavailability (F %) of acamprosate was determined by comparing the area under the acamprosate concentration vs time curve (AUC) following oral or colonic administration of an acamprosate prodrug or acamprosate with the AUC of the acamprosate concentration vs time curve following intravenous administration of acamprosate on a dose normalized basis.
For data set [2] the following is noted: post-dose; doses about 1-2 gm per day; cited from earlier work.
The subject of another data set is cocaine conditioned mice. The following applies: 100 mg/kg acamprosate for 3 days; cited from earlier work.

Consider `CC(=O)NCCCS(=O)(=O)OCC(C)(C)[C@@H](O)C(=O)OC(C)OC(=O)OC(C)C` (stereo partly drawn) [Compound 40, (Methylethoxycarbonyloxy)ethyl (2R)-4-{[3-(acetylamino)propyl]sulfonyloxy}-2-hydroxy-3,3-dimethylbutanoate], for which, in data set [1], the “acamprosate colonic bioavailability relative to the acamprosate colonic bioavailability of an equivalent dose of acamprosate itself” value is on record as “at least 5 times” and the “acamprosate oral bioavailability relative to the acamprosate oral bioavailability of an equivalent dose of acamprosate itself” value is recorded as “at least 5 times”.

As for `CC(=O)NCCCS(=O)(=O)O` [acamprosate, 3-(Acetylamino)propylsulfonic acid], in data set [2], the “time at which steady-state plasma concentration occurs” value was 3 to 8 h. For the same compound, in the data set with cocaine conditioned mice, the relapse-like behavior result was “attenuated relapse-like behavior”.

The values are drawn from patent publication US8168617B2, “Complex pantoic acid ester neopentyl sulfonyl ester cyclization release prodrugs of acamprosate, compositions thereof, and methods of use” (XenoPort, Inc., priority 2007, dated 2012).
